In PubChem BioAssay (NCI):
“And” between values parts separate entries of the source, which are not always exact repeats. Equal values may be shown once.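 Cultured in 96-well plates, cells were exposed to test compound for 48 hours across five concentrations. GI50 is the concentration that inhibits growth by half. At the TGI there is no net growth.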

What was measured:
Assay in all cases: NCI tumour cell line growth inhibition, 48 h
T-47D breast = tested on: T-47D breast
SF-539 CNS = tested on: SF-539 CNS
UACC-62 melanoma = tested on: UACC-62 melanoma
KM12 colon = tested on: KM12 colon
HOP-62 NSCLC = tested on: HOP-62 NSCLC
HCT-116 colon = tested on: HCT-116 colon
HS 578T breast = tested on: HS 578T breast
MALME-3M melanoma = tested on: MALME-3M melanoma

Structure (SMILES) | GI50 (T-47D breast) [nM] | TGI (T-47D breast) [µM] | GI50 (SF-539 CNS) [nM] | TGI (SF-539 CNS) [µM] | GI50 (UACC-62 melanoma) | TGI (UACC-62 melanoma) [µM] | GI50 (KM12 colon) | TGI (KM12 colon) [µM] | GI50 (HOP-62 NSCLC) | TGI (HOP-62 NSCLC) [µM] | GI50 (HCT-116 colon) | TGI (HCT-116 colon) [µM] | GI50 (HS 578T breast) | TGI (HS 578T breast) [µM] | GI50 (MALME-3M melanoma) [nM] | TGI (MALME-3M melanoma) [µM]
Clc1c(Cl)[n+](Cc2ccc3ccccc3c2)cn1Cc1ccc2ccccc2c1 | 504 | 2.09 | 1570 | 2.98 | 1130 nM | 2.45 | 1530 nM | 3.05 | 1260 nM | 2.61 | 1450 nM | 2.87 | 1710 nM | 4.41 | 1400 | 3.15
OC(CNc1ccnc2cc(Cl)ccc12)CNc1ccnc2cc(Cl)ccc12 |  |  | 1740 | 3.3 | 1700 nM | 3.37 |  |  | 3170 nM | 14.7 | 1720 nM | 3.09 | 1970 nM | 4.16 |  | 
C[C@@H](Oc1cc(-n2cnc3ccc(OC4CCN(C)CC4)cc32)sc1C(N)=O)c1ccccc1Cl | 3570 | 8.73 | 56.4 | 2.29 | 33 nM | 4.62 | 8.86 nM | 2.97 | 16.6 nM | 3.29 | 15.6 nM | 3.15 | 41.9 nM | 0.597 | 3890 | 7.89
CCCCCCCCCCCCCCCC1=NCC[N+]1(CCO)CCO | 3350 | 13.2 | 1910 | 4 | 1770 nM | 3.27 | 1780 nM | 3.52 | 1710 nM | 3.23 | 1590 nM | 2.94 | 2510 nM | 7.17 | 12200 | 28
CNC(=O)c1ccc(N2C(=S)N(c3cnc(C#N)c(C(F)(F)F)c3)C(=O)C23CCC3)cc1F | 80600 | > 100 | > 100000 | > 100 | > 70500 nM | > 100 | > 100000 nM | > 100 | > 100000 nM | > 100 | > 95400 nM | > 100 | > 100000 nM | > 100 | 98300 | > 100
O=C(O)CSc1n[nH]c(=O)[nH]c1=O |  | > 100 |  | > 100 |  | > 100 |  | > 100 |  | > 100 |  | > 100 |  | > 100 |  | > 100
COc1ccc(C2(Cl)c3ccccc3N(c3ccccc3)c3ccccc32)cc1 | 288 | 5.38 | 519 | 1.95 | 191 nM | 1.4 | 1180 nM | 5.54 | 411 nM | 2.76 |  |  | 407 nM | 17.2 | 298 | 1.66
CCOC(=O)C1=CCCC[C@H]1S(=O)(=O)Nc1ccc(F)cc1Cl | 16600 | > 100 | 22800 | 55.2 | 19100 nM | 72.7 | 27100 nM | > 100 | 25500 nM | > 100 | 25000 nM | 95.3 | 20300 nM | 89.3 | 24400 | 85.2
COc1ccccc1Nc1cc(O)c2c(=O)cc(-c3ccccc3)oc2c1 | 4360 | > 100 | 2730 | 10.4 | 2390 nM | 12.8 | 2760 nM | 55.2 | 3550 nM | > 100 | 3310 nM | > 100 | 3610 nM | 32.6 | 2130 | 11.9
Oc1c(Cl)cc(Cl)c(Cl)c1CNCCNCc1c(O)c(Cl)cc(Cl)c1Cl | 988 | > 50 | 439 | 5.32 | 917 nM | 5.45 | 963 nM | 8 | 894 nM | 8.3 | 731 nM | 8.52 | 5320 nM | 27.9 | 1110 | 9.67
CC(C)C[C@H](NC(=O)CNC(=O)c1cc(Cl)ccc1Cl)B(O)O | < 15.6 | 0.0602 | < 12.5 | 0.0258 | < 17.5 nM | 0.0457 | 29.5 nM | 0.101 | 47.2 nM | 0.429 | < 13.1 nM | 0.659 | 48.9 nM | > 50.4 | < 11.5 | 0.035
Cc1onc(-c2ccccc2)c1C(=O)N/N=C/c1cc(Cl)cc(Cl)c1O | 6310 | 57.8 | 2650 | 11.6 | 2160 nM | 6.83 | 5540 nM | > 100 | 6040 nM | 55.7 | 4110 nM | > 100 | 17800 nM | > 100 | 4030 | 27.4
C=C(c1ccc(OC)c(/C=C/C(=O)c2ccc3c(c2)OCO3)c1)c1cc(OC)c(OC)c(OC)c1 | 2660 | > 100 | 2360 | 7.24 | 1320 nM | > 100 |  |  | 4160 nM | > 100 |  |  | 4650 nM | > 100 | > 100000 | > 100
O=C1N[C@@H]2[C@@H](O)[C@@H](O)[C@H](O)C[C@H]2c2cc3c(c(O)c21)OCCO3 | 176 | 1.31 | 254 | 0.928 | 272 nM | 1.38 | 169 nM | 1.1 | 282 nM | 1.32 | 107 nM | 1.22 | 270 nM | 0.976 | 209 | 0.731
COc1ccc2c(c1)C(=O)c1c-2n(CCCN(C)C)c(=O)c2ccccc12 | 309 | 3.56 | 282 | 0.979 | 922 nM | 2.5 | 412 nM | 5.25 | 433 nM | 11.2 | 213 nM | 1.42 | 624 nM | 5.99 | 483 | 2.06
Cc1c(-c2cnccn2)ssc1=S |  | > 100 |  | > 100 |  | > 100 |  | > 100 |  | 92 |  | > 100 |  | 91.8 |  | > 100
CN(Cc1ccccc1)Cn1ccnc1 |  | > 100 |  | > 100 |  | > 100 |  | > 100 |  | > 100 |  | > 100 |  | > 100 |  | 50.4

Structure (SMILES) | GI50 (T-47D breast) [nM] | TGI (T-47D breast) [µM] | GI50 (SF-539 CNS) [nM] | TGI (SF-539 CNS) [µM] | GI50 (UACC-62 melanoma) | TGI (UACC-62 melanoma) [µM] | GI50 (KM12 colon) | TGI (KM12 colon) [µM] | GI50 (HOP-62 NSCLC) | TGI (HOP-62 NSCLC) [µM] | GI50 (HCT-116 colon) | TGI (HCT-116 colon) [µM] | GI50 (HS 578T breast) | TGI (HS 578T breast) [µM] | GI50 (MALME-3M melanoma) [nM] | TGI (MALME-3M melanoma) [µM]
O=C1NC(=C(Cl)Cl)/C(=N/S(=O)(=O)N2CCCCC2)N1 | 5940 | 64.5 | 2200 | 5.55 | 1610 nM | 3.04 | 499 nM | 10.3 | 2920 nM | 9.07 | 1850 nM | 3.39 | 3180 nM | 10.7 | 1820 | 3.49
CCOC(=O)c1cc(C(=O)c2ccc(OC)cc2)n2ccc(/C=C/c3cc[n+](CC(=O)c4ccc(OC)cc4)cc3)cc12 | 1910 | 4.43 |  |  |  |  |  |  | 3400 nM | 36.8 | 1550 nM | 3.36 |  |  | 1670 | 3.66
Cc1ccc(O)c(NC(=O)c2cccc(Nc3ccnc(C(F)(F)F)c3)c2)c1 | 2290 | 24 | 12500 | 25.7 | 3820 nM | 20.7 | 11000 nM | 24.8 | 11600 nM | 28.9 | 4140 nM | 17.8 | 16100 nM | 40.3 | 19200 | 78.5
OCC1C(OCc2ccccc2)C(OCc2ccccc2)C(OCc2ccccc2)CN1Cc1ccccc1 (stereo not given) |  | > 100 |  | > 100 |  | > 100 |  | > 100 |  | > 100 |  | 81.5 |  | > 100 |  | 91.5
COc1c/c(=C2\C=c3ccccc3=N2)[nH]/c1=C\c1[nH]c(C)cc1C | < 21.1 | 6.05 | 46.6 | 4.19 | 13.4 nM | 0.0268 | 21.6 nM | 10.6 | 468 nM | 6.87 | < 36.8 nM | 1.71 | 13.1 nM | 0.433 | 32.8 | 
Cc1cc2c(C(=O)NC[C@H](C)c3ccccc3)c(O)c(O)cc2c(O)c1-c1c(C)cc2c(C(=O)NC[C@H](C)c3ccccc3)c(O)c(O)cc2c1O | 284 | 1.34 | 242 | 1.02 | 146 nM | 0.486 | 107 nM | 2.24 | 301 nM | 2.15 | 34.6 nM | 9.59 | 274 nM | 2.56 | 1780 | 7.23
CN[C@H]1CN(c2ccc3c(=O)c(C(=O)O)cn(-c4nccs4)c3n2)C[C@@H]1OC | 1230 | 7.76 | 592 | 4.14 | 359 nM | 1.95 | 1370 nM | 13.9 | 600 nM | 3.4 | 437 nM | 4.58 | 1490 nM | 6.68 | 516 | 2.27
Oc1ccc(C=Nc2ccccc2O)cc1 |  | > 100 |  | > 100 |  | > 100 |  | > 100 |  | > 100 |  | > 100 |  | > 100 |  | 
NS(=O)(=O)OC[C@H]1C[C@@H](Nc2ccnc3cc(-c4cccc(SC(F)(F)F)c4)nn23)[C@H](O)[C@@H]1O |  |  | 14.3 | 0.037 | 32.5 nM | 0.195 | 99.1 nM | 0.368 | 17.3 nM | 0.0489 | 15.9 nM | 0.0571 | 35.1 nM | 1.95 | 27.5 | 0.0652
CC[C@H](C)[C@H](NC(=O)[C@H]1CCCCN1C)C(=O)N(C)[C@H](C[C@@H](OC(C)=O)c1cccc(C(=O)N[C@@H](Cc2ccccc2)C[C@H](C)C(=O)OC)n1)C(C)C | 0.953 |  | 5.92 | 0.0183 | 0.589 nM and 2.5 nM | > 25 | 1.88 nM and 2.5 nM | > 25 | 6.5 nM and 4.27 nM | > 25 | 3.25 nM and 2.5 nM | > 25 | 42.3 nM and 6.13 nM | > 25 |  | 
CC1Cc2c(Cl)ncnc2N(C)c2ccc(Cl)cc21 (stereo not given) | 521 | > 100 | 513 | > 100 | 406 nM | 69.2 |  |  | 339 nM | 11.1 | 314 nM | 12.6 | 342 nM | > 100 | 276 | 3.67
C=CN(C(=O)N1CCN(c2cc3c(cc2F)c(=O)c(C(=O)O)cn3C2CC2)CC1)c1nc(-c2ccc(OC)cc2)cs1 | 3120 | > 100 | 2800 | 7.78 |  |  | 3120 nM | > 100 | 3370 nM | 65.4 | 3420 nM | > 100 | 3220 nM | 14.5 | 4110 | > 100
COc1cc(/C=C2\CC3C4CC=C5C[C@@H](OC(C)=O)CC[C@]5(C)C4CC[C@]3(C)C2=O)ccc1OCCN1CCCCC1 (stereo not given in full) | 2980 | 13.1 | 2020 | 3.82 | 1990 nM | 3.66 | 1990 nM | 4.27 | 12100 nM | 25.9 |  |  |  |  | 1660 | 3.35
Cc1c(C)n(CCCN2CCN(C)CC2)c2ccc(Oc3cccc(C(=O)N4CCN(CCc5ccc(F)cc5)CC4)c3)cc12 |  |  | 1630 | 3.03 | 1870 nM | 3.58 | 1930 nM | 3.64 | 1630 nM | 3.34 |  |  | 2050 nM | 4.51 | 1780 | 3.32
COc1ccc(Nc2nc3cc(N)cc(N)c3nc2-c2ccccc2)cc1 | 17800 | 53.8 |  |  | 16800 nM | 30.5 | 15900 nM | 30.9 | 27600 nM | > 100 | 14900 nM | 28.1 | 14300 nM | 46.5 | 15000 | 28.3
COc1ccc(C(=O)C(CN(C)C)CN(C)C)cc1 | 1860 | 5.28 | 7600 | 20.7 | 5270 nM | 19.4 | 11900 nM | 27.3 | 17800 nM | 32.9 | 1300 nM | 2.63 | 17300 nM | 56.3 |  | 
